Experimental data: patent US20090088432A1, “Thiazolinones and Oxazolinones and their Use as Ptp1b Inhibitors” (priority 2005, published 2009)

Target: T1, Recombinant human Protein-tyrosine phosphatase1B (PTP1B) (Homo sapiens, UniProt P18031)
T1 construct: Recombinant human Protein-tyrosine phosphatase1B (PTP1B) (amino acid 1-322 Biomol, USA); purchased Biomol, USA
T1 sequence (P18031 1-322): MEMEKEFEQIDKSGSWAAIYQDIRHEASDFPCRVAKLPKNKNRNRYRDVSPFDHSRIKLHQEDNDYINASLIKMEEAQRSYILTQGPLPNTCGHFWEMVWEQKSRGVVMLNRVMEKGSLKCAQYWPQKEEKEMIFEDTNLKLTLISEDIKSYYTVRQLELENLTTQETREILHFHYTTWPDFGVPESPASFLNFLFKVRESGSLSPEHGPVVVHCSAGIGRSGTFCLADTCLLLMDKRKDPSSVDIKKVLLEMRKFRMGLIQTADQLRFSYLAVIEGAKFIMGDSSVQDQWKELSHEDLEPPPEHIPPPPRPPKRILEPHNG
Experiment: PTP1B enzyme inhibition assay (pNpp substrate)
Format: biochemical
Conditions: inhibition of recombinant human PTP1B, pNpp 5 mM, 30 mins at 25° C; inhibitor concentration not given
Description: Protein tyrosine phosphatase 1B (PTP1B) is an intracellular enzyme which functions by removing the phosphate groups from phosphorylated tyrosine residues of cellular proteins. PTP1B has been implicated as a negative regulator of insulin action and therefore is of therapeutic interest. The ability of the test compounds to inhibit the activity of PTP1B is determined using an enzyme inhibition assay.
The assay is performed using two independent substrates of PTP1B namely, p-nitrophenyl phosphate (pNpp) and the phosphorylated Epidermal growth factor receptor peptide (EGFR).
In the assay performed with pNpp, the action of PTP1B results in the release of p-nitrophenol, which is yellow in colour and can be measured at 410 nm. In the case of the assay using EGFR, action of PTP1B results in the release of free phosphate group. This is trapped using a reagent containing ammonium molybdate and malachite green resulting in a colored complex whose absorbance can be measured at 620 nm.
1× Assay buffer 50 mM HEPES (pH 7.4) • 1 mM EDTA • 1 mM DTT • 0.05% Igepal® CA-630
Dilute recombinant Human PTP1B 1:150 in 1× Assay buffer for 10× stock,
Prepare 10× stock of pNpp (50 mM) in 1× Assay buffer
Prepare 100× stock in 100% DMSO, dilute 1:10 with 1× Assay buffer to get 10× stock in 10% DMSO.
PTP1B inhibition assay was performed using recombinant human PTP1B. PTP1B (0.016 μg/well) was incubated in a buffer containing 50 mM HEPES, 1 mM DTT, 1 mM EDTA and 0.05% Igepal® CA-630 with or without inhibitor (10× stock, final DMSO concentration is 1%) for 30 mins at 25° C. This was followed by addition of p-Nitrophenyl phosphate (pNpp) substrate (5 mM). The final volume of the reaction mixture is 50 μL and experiment was done in 96 well half area plate. The incubation was continued for 30 mins at 25° C. The conversion of pNpp to p-Nitrophenol (pNp) was measured at 410 nm in Spectramaxplus Spectrophotometer (Molecular Devices, USA).

Compound	Activity Score
O=C(O)Cc1ccc(NC2=NC(=O)C(=Cc3ccc(-n4cnnn4)cc3)S2)cc1 [Compound 45, {4-[4-Oxo-5-(4-tetrazol-1-yl-benzylidene)-4,5-dihydro-thiazol-2-ylamino]-phenyl}-acetic acid]	(+++) (+++ = >50% inhibition)
O=C(O)Cn1ccc2cc(NC3=NC(=O)C(=Cc4cc5ccccc5cc4OCc4ccccc4)S3)ccc21 [Compound 47, {5-[5-(3-Benzyloxy-naphthalen-2-ylmethylene)-4-oxo-4,5-dihydro-thiazol-2-ylamino]-indol-1-yl}-acetic acid]	(+++) (+++ = >50% inhibition)
CCC(C(=O)O)c1ccc(NC2=NC(=O)C(=Cc3cc4ccccc4cc3OCc3ccccc3)S2)cc1 (centres unmarked) [Compound 48, 2-{4-[5-(3-Benzyloxy-naphthalen-2-ylmethylene)-4-oxo-4,5-dihydro-thiazol-2-ylamino]-phenyl}-butyric acid]	(+++) (+++ = >50% inhibition)
O=C(O)CCc1ccc(NC2=NC(=O)C(=Cc3cc4ccccc4cc3OCc3ccccc3)S2)cc1 [Compound 49, 3-{4-[5-(3-Benzyloxy-naphthalen-2-ylmethylene)-4-oxo-4,5-dihydro-thiazol-2-ylamino]-phenyl}-propionic acid]	(++) (++ = 20-50% inhibition)
O=C(O)Cc1ccc(NC2=NC(=O)C(=Cc3cccc(N4C(=O)c5ccccc5C4=O)c3)S2)cc1 [Compound 50, (4-{5-[3-(1,3-Dioxo-1,3-dihydro-isoindol-2-yl)-benzylidene]-4-oxo-4,5-dihydro-thiazol-2-ylamino}-phenyl)-acetic acid]	(+++) (+++ = >50% inhibition)
O=C(O)Cc1ccc(NC2=NC(=O)C(=Cc3cccc(-n4cccc4)c3)S2)cc1 [Compound 51, {4-[4-Oxo-5-(3-pyrrol-1-yl-benzylidene)-4,5-dihydro-thiazol-2-ylamino]-phenyl}-acetic acid]	(+++) (+++ = >50% inhibition)
CC(C(=O)O)c1ccc(NC2=NC(=O)C(=Cc3ccc4ccccc4c3)S2)cc1 (centres unmarked) [Compound 53, 2-[4-(5-Naphthalen-2-yl-ethylene-4-oxo-4,5-dihydro-thiazol-2-ylamino)-phenyl]-propionic acid]	(++) (++ = 20-50% inhibition)
CC(C(=O)O)c1ccc(NC2=NC(=O)C(=Cc3ccc(-c4ccccc4)cc3)S2)cc1 (centres unmarked) [Compound 54, 2-[4-(5-Biphenyl-4-ylmethylene-4-oxo-4,5-dihydro-thiazol-2-ylamino)-phenyl]-propionic acid]	(+++) (+++ = >50% inhibition)
O=C(O)CC(C(=O)O)c1ccc(NC2=NC(=O)C(=Cc3ccc(-c4ccccc4)cc3)S2)cc1 (centres unmarked) [Compound 55, 2-[4-(5-Biphenyl-4-ylmethylene-4-oxo-4,5-dihydro-thiazol-2-ylamino)-phenyl]-succinic acid]	(++) (++ = 20-50% inhibition)
COc1cc(C=C2SC(Nc3ccc(CC(=O)O)cc3)=NC2=O)cc(OC)c1O [Compound 56, {4-[c-(4-hydroxy-3,5-dimethoxy-benzylidene)-4-oxo-4,5-dihydro-thiazol-2-ylamino]-phenyl}-acetic acid]	(+) (+ = 10-20% inhibition)
COc1cc(C=C2SC(Nc3ccc(CC(=O)O)cc3)=NC2=O)cc(OC)c1OC [Compound 59, {4-[4-Oxo-5-(3,4,5-trimethoxy-benzylidene)-4,5-dihydro-thiazol-2-ylamino]-phenyl}-acetic acid]	(+++) (+++ = >50% inhibition)
O=C(O)Cc1ccc(NC2=NC(=O)C(=Cc3cccn3-c3ccc(Br)cc3)S2)cc1 [Compound 60, (4-{5-[1-(4-Bromo-phenyl)-1H-pyrrol-2-ylmethylene]-4-oxo-4,5-dihydro-thiazol-2-ylamino}-phenyl)-acetic acid]	(++) (++ = 20-50% inhibition)
CC(=C1SC(Nc2ccc(CC(=O)O)cc2)=NC1=O)c1cccc(-n2cccc2)c1 [Compound 61, (4-{4-Oxo-5-[1-(3-pyrrol-1-yl-phenyl)-ethylidene]-4,5-dihydro-thiazol-2-ylamino}-phenyl)-acetic acid]	(+) (+ = 10-20% inhibition)
O=C(O)Cc1ccc(NC2=NC(=O)C(=Cc3cccn3-c3ccccc3)S2)cc1 [Compound 62, {4-[4-Oxo-5-(1-phenyl-1H-pyrrol-2-ylmethylene)-4,5-dihydro-thiazol-2-ylamino]-phenyl}-acetic acid]	(+++) (+++ = >50% inhibition)
O=C1N=C(Nc2ccc(CC(C(=O)O)C(=O)O)cc2)SC1=Cc1ccc(-c2ccccc2)cc1 [Compound 67, 2-[4-(5-Biphenyl-4-ylmethylene-4-oxo-4,5-dihydro-thiazol-2-ylamino)-benzyl]-malonic acid]	(++) (++ = 20-50% inhibition)
O=C(O)Cc1ccc(NC2=NC(=O)C(=Cc3coc4ccccc4c3=O)S2)cc1 [Compound 71, {4-[4-oxo-5-(4-oxo-4H-chromen-3-ylmethylene)-4,5-dihydro-thiazol-2-ylamino]-phenyl}-acetic acid]	(+++) (+++ = >50% inhibition)
O=C(O)Cc1ccc(NC2=NC(=O)C(=Cc3ccc(C(F)(F)F)cc3)S2)cc1 [Compound 72, {4-[4-Oxo-5-(4-trifluoro methyl-benzylidene)-4,5-dihydro-thiazol-2-ylamino]-phenyl}-acetic acid]	(+) (+ = 10-20% inhibition)
CCC(C(=O)[O-])c1ccc(NC2=NC(=O)C(=Cc3cc4ccccc4cc3OCc3ccccc3)S2)cc1.[Na+] [Compound 84, 2-{4-[L-(3-Benzyloxy-naphthalen-2-ylmethylene)-4-oxo-4,5-dihydro-thiazol-2-ylamino]-phenyl}-sodium butyrate]	(+++) (+++ = >50% inhibition)
O=C(O)Cc1ccc(NC2=NC(=O)C(=Cc3cc4ccccc4cc3OCc3ccc(F)cc3)S2)cc1 [Compound 85, (4-{5-[3-(4-Fluoro-benzyloxy)-naphthalen-2-ylmethylene]-4-oxo-4,5-dihydro-thiazol-2-ylamino}-phenyl)-acetic acid]	(+++) (+++ = >50% inhibition)
O=C(O)Cc1ccc(NC2=NC(=O)C(=Cc3cccc(-n4cncn4)c3)S2)cc1 [Compound 87, {4-[4-Oxo-5-(3-[1,2,4]triazol-1-yl-benzylidene)-4,5-dihydro-thiazol-2-ylamino]-phenyl}-acetic acid]	(+) (+ = 10-20% inhibition)
O=C(O)Cc1ccc(NC2=NC(=O)C(=Cc3cccc(-n4cnc5ccccc54)c3)S2)cc1 [Compound 88, {4-[5-(3-Benzoimidazol-1-yl-benzylidene)-4-oxo-4,5-dihydro-thiazol-2-ylamino]-phenyl}-acetic acid]	(+++) (+++ = >50% inhibition)
O=C([O-])CCc1ccc(NC2=NC(=O)C(=Cc3ccc4ccccc4c3)S2)cc1.[Na+] [Compound 89, 3-[4-(5-Naphthalen-2-ylmethylene-4-oxo-4,5-dihydro-thiazol-2-ylamino)-phenyl]-sodium propionate]	(+) (+ = 10-20% inhibition)
O=C(O)Cc1ccc(NC2=NC(=O)C(=Cc3cccc(N4CCN(c5ccccn5)CC4)c3)S2)cc1 [Compound 90, (4-{4-Oxo-5-[3-(4-pyridin-2-yl-piperazin-1-yl)-benzylidene]-4,5-dihydro-thiazol-2-ylamino}-phenyl)-acetic acid]	(+++) (+++ = >50% inhibition)
O=C(O)Cc1ccc(NC2=NC(=O)C(=Cc3cccc(-n4cccn4)c3)S2)cc1 [Compound 91, {4-[4-Oxo-5-(3-pyrazol-1-yl-benzylidene)-4,5-dihydro-thiazol-2-ylamino]-phenyl}-acetic acid]	(++) (++ = 20-50% inhibition)
O=C(O)Cc1ccc(NC2=NC(=O)C(=Cc3ccc(-c4ccccc4)cc3)S2)cc1 [Compound 94, [4-(5-Biplenyl-4-ylmethylene-4-oxo-4,5-dihydro-thiazol-2-ylamino)-phenyl]-acetic acid]	(+) (+ = 10-20% inhibition)
O=C([O-])CCc1ccc(NC2=NC(=O)C(=Cc3cc4ccccc4cc3OCc3ccccc3)S2)cc1.[Na+] [Compound 96, 3-{4-[5-(3-Benzyloxy-naphthalen-2-ylmethylene)-4-oxo-4,5-dihydro-thiazol-2-lamino]-phenyl}-sodium propionate]	(+++) (+++ = >50% inhibition)
